In brackets after ≈: the same amount, converted by molar mass.
Key:
Type in all cases: functional
[1] = tested on: Priestia megaterium; assay: Antimicrobial activity against Bacillus megaterium by disk diffusion method
[2] = tested on: Candida albicans; assay: Antimicrobial activity against Candida albicans at 10 ug/disk by disk diffusion method; details: read-out: DIZ
[3] = tested on: Pseudomonas aeruginosa; assay: Antimicrobial activity against Pseudomonas aeruginosa at 40 ug/disk by disk diffusion method; details: read-out: DIZ
[4] = tested on: Escherichia coli; assay: Antimicrobial activity against Escherichia coli by disk diffusion method
[5] = tested on: Klebsiella pneumoniae; assay: Antimicrobial activity against Klebsiella pneumoniae by disk diffusion method
[6] = tested on: Escherichia coli; assay: Antimicrobial activity against Escherichia coli at 30 ug/disk by disk diffusion method; details: read-out: DIZ
[7] = tested on: Aspergillus niger; assay: Antimicrobial activity against Aspergillus niger at 20 ug/disk by disk diffusion method; details: read-out: DIZ
[8] = tested on: Klebsiella pneumoniae; assay: Antimicrobial activity against Klebsiella pneumoniae at 20 ug/disk by disk diffusion method; details: read-out: DIZ
[9] = tested on: Proteus vulgaris; assay: Antimicrobial activity against Proteus vulgaris at 10 ug/disk by disk diffusion method; details: read-out: DIZ
[10] = tested on: Micrococcus luteus; assay: Antimicrobial activity against Micrococcus luteus by disk diffusion method
[11] = tested on: Citrobacter freundii; assay: Antimicrobial activity against Citrobacter freundii by disk diffusion method
[12] = tested on: Priestia megaterium; assay: Antimicrobial activity against Bacillus megaterium at 10 ug/disk by disk diffusion method; details: read-out: DIZ
[13] = tested on: Serratia marcescens; assay: Antimicrobial activity against Serratia marcescens by disk diffusion method
[14] = tested on: Citrobacter freundii; assay: Antimicrobial activity against Citrobacter freundii at 20 ug/disk by disk diffusion method; details: read-out: DIZ
[15] = tested on: Fusarium verticillioides; assay: Antimicrobial activity against Fusarium verticillioides at 30 ug/disk by disk diffusion method; details: read-out: DIZ
[16] = tested on: Aspergillus oryzae; assay: Antimicrobial activity against Aspergillus oryzae at 30 ug/disk by disk diffusion method; details: read-out: DIZ
[17] = tested on: Pseudomonas aeruginosa; assay: Antimicrobial activity against Pseudomonas aeruginosa by disk diffusion method
[18] = tested on: Salmonella typhi; assay: Antimicrobial activity against Salmonella enterica subsp. enterica serovar Typhi by disk diffusion method
[19] = tested on: Salmonella typhi; assay: Antimicrobial activity against Salmonella enterica subsp. enterica serovar Typhi at 50 ug/disk by disk diffusion method; details: read-out: DIZ
[20] = tested on: Proteus vulgaris; assay: Antimicrobial activity against Proteus vulgaris by disk diffusion method
[21] = tested on: Micrococcus luteus; assay: Antimicrobial activity against Micrococcus luteus at 10 ug/disc by disk diffusion method; details: read-out: DIZ
[22] = tested on: Serratia marcescens; assay: Antimicrobial activity against Serratia marcescens at 10 ug/disk by disk diffusion method; details: read-out: DIZ
[23] = tested on: Salmonella typhi; assay: Antimicrobial activity against Salmonella enterica subsp. enterica serovar Typhi at 10 to 60 ug/disk by disk diffusion method
[24] = tested on: Candida albicans; assay: Antimicrobial activity against Candida albicans at 10 to 60 ug/disk by disk diffusion method
[25] = tested on: Proteus vulgaris; assay: Antimicrobial activity against Proteus vulgaris at 10 to 60 ug/disk by disk diffusion method
[26] = tested on: Serratia marcescens; assay: Antimicrobial activity against Serratia marcescens at 10 to 60 ug/disk by disk diffusion method
[27] = tested on: Fusarium verticillioides; assay: Antimicrobial activity against Fusarium verticillioides at 10 to 60 ug/disk by disk diffusion method
[28] = tested on: Klebsiella pneumoniae; assay: Antimicrobial activity against Klebsiella pneumoniae at 10 to 60 ug/disk by disk diffusion method
[29] = tested on: Aspergillus niger; assay: Antimicrobial activity against Aspergillus niger at 10 to 60 ug/disk by disk diffusion method
[30] = tested on: Aspergillus oryzae; assay: Antimicrobial activity against Aspergillus oryzae at 10 to 60 ug/disk by disk diffusion method
[31] = tested on: Micrococcus luteus; assay: Antimicrobial activity against Micrococcus luteus at 10 to 60 ug/disc by disk diffusion method
[32] = tested on: Priestia megaterium; assay: Antimicrobial activity against Bacillus megaterium at 10 to 60 ug/disk by disk diffusion method
[33] = tested on: Pseudomonas aeruginosa; assay: Antimicrobial activity against Pseudomonas aeruginosa at 10 to 60 ug/disk by disk diffusion method
[34] = tested on: Escherichia coli; assay: Antimicrobial activity against Escherichia coli at 10 to 60 ug/disk by disk diffusion method
[35] = tested on: Citrobacter freundii; assay: Antimicrobial activity against Citrobacter freundii at 10 to 60 ug/disk by disk diffusion method
[36] = tested on: Escherichia coli; assay: Antimicrobial activity against Escherichia coli at 10 ug/disk by disk diffusion method; details: read-out: DIZ
[37] = tested on: Salmonella typhi; assay: Antimicrobial activity against Salmonella enterica subsp. enterica serovar Typhi at 10 ug/disk by disk diffusion method; details: read-out: DIZ
[38] = tested on: Klebsiella pneumoniae; assay: Antimicrobial activity against Klebsiella pneumoniae at 10 ug/disk by disk diffusion method; details: read-out: DIZ
[39] = tested on: Pseudomonas aeruginosa; assay: Antimicrobial activity against Pseudomonas aeruginosa at 10 ug/disk by disk diffusion method; details: read-out: DIZ
[40] = tested on: Aspergillus niger; assay: Antimicrobial activity against Aspergillus niger at 10 ug/disk by disk diffusion method; details: read-out: DIZ
[41] = tested on: Citrobacter freundii; assay: Antimicrobial activity against Citrobacter freundii at 10 ug/disk by disk diffusion method; details: read-out: DIZ
[42] = tested on: Fusarium verticillioides; assay: Antimicrobial activity against Fusarium verticillioides at 20 ug/disk by disk diffusion method; details: read-out: DIZ
[43] = tested on: Aspergillus oryzae; assay: Antimicrobial activity against Aspergillus oryzae at 10 ug/disk by disk diffusion method; details: read-out: DIZ
[44] = tested on: Aspergillus niger; assay: Antimicrobial activity against Aspergillus niger at 50 ug/disk by disk diffusion method; details: read-out: DIZ
[45] = tested on: Fusarium verticillioides; assay: Antimicrobial activity against Fusarium verticillioides at 40 ug/disk by disk diffusion method; details: read-out: DIZ
[46] = tested on: Candida albicans; assay: Antimicrobial activity against Candida albicans at 40 ug/disk by disk diffusion method; details: read-out: DIZ

Row | Structure (SMILES) | MIC [1] | MIC [4] | MIC [5] | zone of inhibition at 10 µg/disc [9] | MIC [10] | MIC [11] | zone of inhibition at 10 µg/disc [12] | MIC [13] | MIC [17] | MIC [18] | MIC [20] | zone of inhibition at 10 µg/disc [21] | zone of inhibition at 10 µg/disc [22] | diameter of the inhibition zone (DIZ) [23] | diameter of the inhibition zone (DIZ) [24] | diameter of the inhibition zone (DIZ) [25] | diameter of the inhibition zone (DIZ) [26] | diameter of the inhibition zone (DIZ) [27] | diameter of the inhibition zone (DIZ) [28] | diameter of the inhibition zone (DIZ) [29] | also measured
1 | O=C(/C=C/c1ccccc1)c1ccc[nH]1 | 10 µg/mL (≈ 50.7 µM) | 10 µg/mL (≈ 50.7 µM) | 10 µg/mL (≈ 50.7 µM) | 5 mm | 10 µg/mL (≈ 50.7 µM) | 10 µg/mL (≈ 50.7 µM) | 13 mm | 10 µg/mL (≈ 50.7 µM) | 10 µg/mL (≈ 50.7 µM) | 10 µg/mL (≈ 50.7 µM) | 10 µg/mL (≈ 50.7 µM) | 7 mm | 9 mm | – | – | – | – | – | – | – | zone of inhibition at 10 µg/disc [2]: 7 mm; zone of inhibition at 40 µg/disc [3]: 7 mm; zone of inhibition at 30 µg/disc [6]: 7 mm; zone of inhibition at 20 µg/disc [7]: 11 mm; zone of inhibition at 20 µg/disc [8]: 8 mm; zone of inhibition at 20 µg/disc [14]: 6 mm; zone of inhibition at 30 µg/disc [15]: 8 mm; zone of inhibition at 30 µg/disc [16]: 9 mm; zone of inhibition at 50 µg/disc [19]: 7 mm
2 | O=C(c1ccco1)C1C(C(=O)c2ccco2)C(c2ccccc2)C1c1ccccc1 (stereo not given) | – | – | – | – | – | – | – | – | – | – | – | – | – | 5 mm | 5 mm | 7 mm | 5 mm | 6 mm | 5 mm | 5 mm | diameter of the inhibition zone (DIZ) [30]: 5 mm; diameter of the inhibition zone (DIZ) [31]: 7 mm; diameter of the inhibition zone (DIZ) [32]: 5 mm; diameter of the inhibition zone (DIZ) [33]: 5 mm; diameter of the inhibition zone (DIZ) [34]: 5 mm; diameter of the inhibition zone (DIZ) [35]: 5 mm
3 | O=C(c1ccc[nH]1)C1C(C(=O)c2ccc[nH]2)C(c2ccccc2)C1c1ccccc1 (stereo not given) | – | – | – | – | – | – | – | – | – | – | – | – | – | 5 mm | 5 mm | 5 mm | 5 mm | 5 mm | 5 mm | 5 mm | diameter of the inhibition zone (DIZ) [30]: 5 mm; diameter of the inhibition zone (DIZ) [31]: 5 mm; diameter of the inhibition zone (DIZ) [32]: 5 mm; diameter of the inhibition zone (DIZ) [33]: 6 mm; diameter of the inhibition zone (DIZ) [34]: 5 mm; diameter of the inhibition zone (DIZ) [35]: 5 mm
4 | OC(/C=C/c1cccs1)(c1ccccc1)C(O)(/C=C/c1cccs1)c1ccccc1 (stereo not given) | – | – | – | – | – | – | – | – | – | – | – | – | – | 7 mm | 5 mm | 5 mm | 5 mm | 5 mm | 7 mm | 5 mm | diameter of the inhibition zone (DIZ) [30]: 5 mm; diameter of the inhibition zone (DIZ) [31]: 8 mm; diameter of the inhibition zone (DIZ) [32]: 5 mm; diameter of the inhibition zone (DIZ) [33]: 5 mm; diameter of the inhibition zone (DIZ) [34]: 5 mm; diameter of the inhibition zone (DIZ) [35]: 5 mm
5 | O=C(/C=C/c1ccco1)c1ccccc1 | 20 µg/mL (≈ 101 µM) | 10 µg/mL (≈ 50.4 µM) | 10 µg/mL (≈ 50.4 µM) | 9 mm | 10 µg/mL (≈ 50.4 µM) | 10 µg/mL (≈ 50.4 µM) | 9 mm | 10 µg/mL (≈ 50.4 µM) | 10 µg/mL (≈ 50.4 µM) | 10 µg/mL (≈ 50.4 µM) | 20 µg/mL (≈ 101 µM) | 9 mm | 7 mm | – | – | – | – | – | – | – | zone of inhibition at 10 µg/disc [2]: 9 mm; zone of inhibition at 10 µg/disc [36]: 5 mm; zone of inhibition at 10 µg/disc [37]: 5 mm; zone of inhibition at 10 µg/disc [38]: 6 mm; zone of inhibition at 10 µg/disc [39]: 5 mm; zone of inhibition at 10 µg/disc [40]: 8 mm; zone of inhibition at 30 µg/disc [16]: 8 mm; zone of inhibition at 10 µg/disc [41]: 7 mm; zone of inhibition at 20 µg/disc [42]: 7 mm
6 | O=C(/C=C/c1ccc[nH]1)c1ccccc1 | 10 µg/mL (≈ 50.7 µM) | 10 µg/mL (≈ 50.7 µM) | 10 µg/mL (≈ 50.7 µM) | 5 mm | 10 µg/mL (≈ 50.7 µM) | 10 µg/mL (≈ 50.7 µM) | 12 mm | 10 µg/mL (≈ 50.7 µM) | 10 µg/mL (≈ 50.7 µM) | 10 µg/mL (≈ 50.7 µM) | 10 µg/mL (≈ 50.7 µM) | 7 mm | 7 mm | – | – | – | – | – | – | – | zone of inhibition at 10 µg/disc [43]: 9 mm; zone of inhibition at 40 µg/disc [3]: 9 mm; zone of inhibition at 10 µg/disc [36]: 6 mm; zone of inhibition at 10 µg/disc [37]: 5 mm; zone of inhibition at 50 µg/disc [44]: 8 mm; zone of inhibition at 20 µg/disc [8]: 9 mm; zone of inhibition at 40 µg/disc [45]: 6 mm; zone of inhibition at 40 µg/disc [46]: 7 mm; zone of inhibition at 20 µg/disc [14]: 9 mm

— ChEMBL document CHEMBL3046652, “Photodimerization of heteroaryl chalcones: comparative antimicrobial activities of chalcones and their photoproducts” (2012)
